Measured values as given in patent publication US20060063784A1, “Method of using substituted pyrazolo [1,5-a] pyrimidines” (priority 2004, published 2006).

Each molecule was assayed on 80S14 (p21-deficient) cells (assay: Cytotoxicity assay using isogenic cell lines: IC50 in 80S14 (p21-deficient) cells, SRB). Conditions: 80S14 (p21-deficient) cells, 5 days, SRB; class symbols; read-out: IC50 for 80S14.
Assay type: cell-based, human
Description: Cytotoxicity Assay Using Isogenic Cell Lines: • 1. 80S14 (p21-deficient) cells were cultured in RPMI 1640 medium (Gibco/Invitrogen Life technologies) supplemented with 10% fetal bovine serum (FBS, Gibco) and 10 μg/ml gentamycin (Gibco). Cells were maintained at 37° C. under 7% CO2 • 2. Cells were plated at 6×10^4/ml (0.2 ml/well; 12,000 cells/well) in 96-well microtiter plates (Falcon or Corning/Costar) and incubated at 37° C. overnight (18-24 hours). • 3. 2-5 μl of the test agent [200 μg/ml stock in 20% DMSO/20 mM HEPES, pH 7.5 (Gibco)] was added to each well to achieve a final concentration of 2-5 μg/ml. Cells were incubated with the test compounds for 5 days at 37° C. • 4. Surviving cells were fixed with 50 μl 50% trichloroacetic acid (Sigma; 10% final concentration) for 1 hour at 4° C. • 5. Plates were rinsed twice with water (0.3 ml per wash using MRD8 robot), and allowed to dry. • 6. Sulforhodamine B (SRB) (Sigma; 0.4% in 1% acetic acid, 50 μl per well; MRD8 robot) was added and plates kept at room temperature for 10 minutes. • 7. Excess dye was removed by washing with 1% acetic acid (3 times, 0.3 ml per wash; MRD8 robot) and allowed to dry. • 8. The dye was solubilized in Tris base (Sigma; 10 mM, 150 μl per well). Plates were kept at room temperature for 30 minutes to allow the dye to diffuse. • 9. Absorbance was measured at 540 nm. • 10. The percentage of cells surviving drug treatment relative to control wells (no drug) was determined. • 11. The difference in % cell survival between the two cell lines was calculated. • 12. Compounds producing a difference score of >50 were considered to be selective for the p21-deficient cells and were evaluated further: Determination of selectivity of compounds for p21−/− cells: • 1. 80S14 cells were cultured as described above. • 2. Cells were seeded in 96-well microtiter plates at 12,000 cells/well (either 0.15 ml/well of 8×10^4 cells/ml suspension, or 0.2 ml/well of 6×10^4 cells/ml suspension). Plates were incubated at 37° C. overnight (18-24 hours). • 3. Serial dilutions of the test agent were added to each well. Dilutions were prepared either in 40% DMSO/20% methanol/20 mM HEPES, pH 7.5 (Gibco) or directly in growth medium. One of two dose ranges were used: 5 pM to 50 μM or 170 pg/ml to 10 μg/ml. Cells were incubated with the test compounds for 5 days at 37° C. • 4. Surviving cells were fixed with 50 μl 50% trichloroacetic acid (Sigma; 10% final concentration) for 1 hour at 4° C. • 5. Plates were rinsed extensively in water, and allowed to dry. • 6. Sulforhodamine B (Sigma; 0.4% in 1% acetic acid, 70 μl per well) was added and plates kept at room temperature for 10 minutes. • 7. Excess dye was removed by washing 5 times with 1% acetic acid and plates were allowed to dry. • 8. The dye was solubilized in Tris base (Sigma; 10 mM, 150 μl per well). Plates were placed on a titer plate shaker (Lab Line Instruments) for 5 minutes to allow the dye to diffuse. • 9. Absorbance was measured at 560 nm.
10. The drug concentration that inhibits cell proliferation by 50% relative to untreated controls (IC50) was determined from cytotoxicity curves.
Molecule `CCOC(=O)c1cnn2c(-c3cccc(NC(=O)C4CCC4)c3)ccnc12` [Example 240, Ethyl 7-[3-[(cyclobutylcarbonyl)amino]phenyl]-pyrazolo[1,5-a]pyrimidine-3-carboxylic acid] has an IC50 of 10 to 50 µM.
“N-{3-[3-(2-Thienylcarbonyl)pyrazolo[1,5-a]pyrimidin-7-yl]phenyl}-3-trifluoromethyl)benzamide [Example 281]” gave an IC50 of less than 1 µM.
With `Cc1cc(-c2cccc(NC(=O)C3CO3)c2)n2ncc(C(=O)c3cccs3)c2n1` (centres unmarked) [Example 278, {3-[5-Methyl-3-(2-thienylcarbonyl)pyrazolo[1,5-a]pyrimidin-7-yl]phenyl}-2-oxiranecarboxamide] the IC50 was less than 1 µM.

Same assay, conditions: Homo sapiens, 80S14, 120 h, read-out: IC50 for 80S14 (uM)
Work on `CC(C)C(=O)Nc1cccc(-c2ccnc3c(C(=O)c4ccco4)cnn23)c1` [Example 241, N-[3-[3-(2-Furanylcarbonyl)pyrazolo-[1,5-a]pyrimidin-7-yl]phenyl}-2-methyl-propanamide] yielded an IC50 of 1 to 10 µM.
With `CC(C)CC(=O)Nc1cccc(-c2ccnc3c(C(=O)c4ccoc4)cnn23)c1` [Example 304, N-{3-[3-(3-Furoyl)pyrazolo[1,5-a]pyrimidin-7-yl]phenyl}-3-methylbutanamide] the IC50 was 1 to 10 µM.

Same assay, conditions: Homo sapiens, 120 h; 80S14 (p21-deficient) cells, 5 days, SRB; class symbols; read-out: IC50 for 80S14
Molecule `O=C(c1ccco1)c1cnn2c(-c3cccc(N4CCCC4=O)c3)ccnc12` [Example 228, 1-[3-[3-(2-Furanylcarbonyl)pyrazolo-[1,5-a]pyrimidin-7-yl]phenyl]-2-pyrrolidinone] has an IC50 of 10 to 50 µM.
`O=C(Nc1cccc(-c2ccnc3c(C(=O)c4cccs4)cnn23)c1)c1cnc[nH]1` [Example 415, N-{3-[3-(Thien-2-ylcarbonyl)pyrazolo[1,5-a]pyrimidin-7-yl]phenyl}-1H-imidazole-5-carboxamide] was tested, and the IC50 was less than 1 µM.
`O=C(Nc1ccccc1)c1cccc(-c2ccnc3c(C(=O)c4cccs4)cnn23)c1` [Example 321, N-Phenyl-3-[3-(2-thienylcarbonyl)pyrazolo[1,5-a]pyrimidin-7-yl]benzamide] was tested, and the IC50 was less than 1 µM.
`CCOc1cccc(-c2ccnc3c(C(=O)c4cccs4)cnn23)c1` [Example 263, [7-(3-Ethoxyphenyl)pyrazolo[1,5-a]pyrimidin-3-yl]-2-thienyl-methanone] showed an IC50 of 1 to 10 µM.
`CC(C)COC(=O)Nc1cccc(-c2ccnc3c(-c4cccs4)cnn23)c1` [Example 407, Isobutyl 3-(3-thien-2-ylpyrazolo[1,5-a]pyrimidin-7-yl)phenylcarbamate] gave an IC50 of 1 to 10 µM.
Molecule `O=C(c1ccccc1)c1cnn2c(-c3cccc(NC(=O)C4CC4)c3)ccnc12` [Example 230, N-[3-(3-Benzoylpyrazolo-[1,5-a]pyrimidin-7-yl)phenyl]-cyclopropanecarboxamide] has an IC50 of 1 to 10 µM.
In the case of `C=CC(=O)Nc1cccc(-c2ccnc3c(C(=O)c4cccs4)cnn23)c1` [Example 272, N-{3-[3-(2-Thienylcarbonyl)pyrazolo[1,5-a]pyrimidin-7-yl]phenyl}acrylamide], the IC50 is reported as less than 1 µM.
Work on `CCN(C(=O)C1CC1)c1cccc(-c2ccnc3c(Cl)cnn23)c1` [Example 255, N-[3-(3-Chloropyrazolo[1,5-a]pyrimidin-7-yl)phenyl]-N-ethyl-cyclopropanecarboxamide] yielded an IC50 of 10 to 50 µM.

Same assay, conditions: Homo sapiens, 120 h; 80S14 (p21-deficient) cells, 5 days, SRB; numeric value; read-out: IC50 for 80S14
In the case of `CCCCNC(=N)OC(=N)N(CCCC)c1cccc(-c2ccnc3c(C(=O)c4cccs4)cnn23)c1` [Example 292, N,N′-Dibutyl-N-{3-[3-(2-thienylcarbonyl)pyrazolo[1,5-a]pyrimidin-7-yl]phenyl}dicarbonimidic diamide], the IC50 is reported as 4.5 µM.

Same assay, conditions: Homo sapiens, 120 h; 80S14 p21-deficient cells, 5 days incubation, SRB; read-out: IC50 for 80SI4
Molecule `O=C(/C=C/c1ccccc1)Nc1cccc(-c2ccnc3c(C(=O)c4cccs4)cnn23)c1` [Example 71, (2E)-3-phenyl-N-{3-[3-(thien-2-ylcarbonyl)pyrazolo[1,5-a]pyrimidin-7-yl]phenyl}prop-2-enamide] has an IC50 of 1 to 10 µM.
For `O=C(Nc1cccc(-c2ccnc3c(C(=O)c4cccs4)cnn23)c1)c1cccc(F)c1` [Example 98, 3-fluoro-N-{3-[3-(thien-2-ylcarbonyl)pyrazolo[1,5-a]pyrimidin-7-yl]phenyl}benzamide], the IC50 was less than 1 µM.
`COc1cccc(C(=O)Nc2cccc(-c3ccnc4c(C(=O)c5cccs5)cnn34)c2)c1` [Example 97, 3-methoxy-N-{3-[3-(thien-2-ylcarbonyl)pyrazolo[1,5-a]pyrimidin-7-yl]phenyl}benzamide] showed an IC50 of less than 1 µM.
Molecule `O=C(CNC(=O)C1CC1)Nc1cccc(-c2ccnc3c(C(=O)c4cccs4)cnn23)c1` [Example 126, N-[2-oxo-2-({3-[3-(thien-2-ylcarbonyl)pyrazolo[1,5-a]pyrimidin-7-yl]phenyl}amino)ethyl]cyclopropanecarboxamide] has an IC50 of 10 to 50 µM.
In the case of `O=C(Nc1cccc(-c2ccnc3c(C(=O)c4cccs4)cnn23)c1)N[C@H]1C[C@@H]1c1ccccc1` [Example 12, N-[(1S,2R)-2-phenylcyclopropyl]-N′-{3-[3-(thien-2-ylcarbonyl)pyrazolo[1,5-a]pyrimidin-7-yl]phenyl}urea], the IC50 is reported as less than 1 µM.
`CSCCC(=O)Nc1cccc(-c2ccnc3c(C(=O)c4cccs4)cnn23)c1` [Example 50, 3-(methylthio)-N-{3-[3-(thien-2-ylcarbonyl)pyrazolo[1,5-a]pyrimidin-7-yl]phenyl}propanamide] showed an IC50 of less than 1 µM.
`C=CCOC(=O)NCC(=O)Nc1cccc(-c2ccnc3c(C(=O)c4cccs4)cnn23)c1` [Example 124, allyl 2-oxo-2-({3-[3-(thien-2-ylcarbonyl)pyrazolo[1,5-a)pyrimidin-7-yl]phenyl}amino)ethylcarbamate] was tested, and the IC50 was 10 to 50 µM.
In the case of `CC1CC1COC(=O)Nc1cccc(-c2ccnc3c(C(=O)c4cccs4)cnn23)c1` (centres unmarked) [Example 187, (2-methylcyclopropyl)methyl 3-[3-(thien-2-ylcarbonyl)pyrazolo[1,5-a]pyrimidin-7-yl]phenylcarbamate], the IC50 is reported as less than 1 µM.
In the case of `O=C(Nc1cccc(-c2ccnc3c(C(=O)c4cccs4)cnn23)c1)OCCN1CCCCC1` [Example 180, 2-piperidin-1-ylethyl 3-[3-(thien-2-ylcarbonyl)pyrazolo[1,5-a]pyrimidin-7-yl]phenylcarbamate], the IC50 is reported as 1 to 10 µM.
For `CC(C)OC(=O)NCC(=O)Nc1cccc(-c2ccnc3c(C(=O)c4cccs4)cnn23)c1` [Example 115, isopropyl 2-oxo-2-({3-[3-(thien-2-ylcarbonyl)pyrazolo[1,5-a]pyrimidin-7-yl]phenyl}amino)ethylcarbamate], the IC50 was 1 to 10 µM.
`O=C(CNC(=O)OCc1ccccc1)Nc1cccc(-c2ccnc3c(C(=O)c4cccs4)cnn23)c1` [Example 125, benzyl 2-oxo-2-({3-[3-(thien-2-ylcarbonyl)pyrazolo[1,5-a]pyrimidin-7-yl]phenyl}amino)ethylcarbamate] was tested, and the IC50 was 1 to 10 µM.
In the case of `CCC(CC)C(=O)NCC(=O)Nc1cccc(-c2ccnc3c(C(=O)c4cccs4)cnn23)c1` [Example 131, 2-ethyl-N-[2-oxo-2-({3-[3-(thien-2-ylcarbonyl)pyrazolo[1,5-a]pyrimidin-7-yl]phenyl}amino)ethyl]butanamide], the IC50 is reported as 10 to 50 µM.
Molecule `C#CCC(C)OC(=O)Nc1cccc(-c2ccnc3c(C(=O)c4cccs4)cnn23)c1` (centres unmarked) [Example 183, 1-methylbut-3-ynyl 3-[3-(thien-2-ylcarbonyl)pyrazolo[1,5-a]pyrimidin-7-yl]phenylcarbamate] has an IC50 of less than 1 µM.
With `CC(CC(=O)Nc1cccc(-c2ccnc3c(C(=O)c4cccs4)cnn23)c1)CC(C)(C)C` (centres unmarked) [Example 140, 3,5,5-trimethyl-N-{3-[3-(thien-2-ylcarbonyl)pyrazolo[1,5-a]pyrimidin-7-yl]phenyl}hexanamide] the IC50 was less than 1 µM.
`COCCOCC(=O)Nc1cccc(-c2ccnc3c(C(=O)c4cccs4)cnn23)c1` [Example 63, 2-(2-methoxyethoxy)-N-{3-[3-(thien-2-ylcarbonyl)pyrazolo[1,5-a]pyrimidin-7-yl]phenyl}acetamide] was tested, and the IC50 was 1 to 10 µM.
